Test results reported in publication PMC6112128, “Discovery and characterization of the tubercidin biosynthetic pathway from Streptomyces tubercidicus NBRC 13090” (Microbial Cell Factories, 2018).

Key:
TubE = molecular target: T1, TubE (Streptomyces tubercidicus, UniProt A0A384YVR8); test: HPLC and LC-MS product detection; product NMR; assay type: biochemical; settings: 1 mM CDG, 2 mM PRPP, 5 mM MgCl2, 1 mM DTT, 100 mM PBS pH 7.5, 30 °C, 8 h
T1 construct: gene Stube_10250; full-length, 194 aa, His6-tagged (pET28a NdeI-EcoRI), E. coli Rosetta (DE3)/pLysS
T1 sequence (A0A384YVR8 1-194): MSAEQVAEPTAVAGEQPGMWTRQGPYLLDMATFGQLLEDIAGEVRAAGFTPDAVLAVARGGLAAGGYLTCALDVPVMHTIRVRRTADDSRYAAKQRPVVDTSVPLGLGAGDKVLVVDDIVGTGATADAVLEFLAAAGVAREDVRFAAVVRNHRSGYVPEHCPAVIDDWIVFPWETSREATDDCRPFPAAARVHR

TubD = molecular target: T2, TubD (Streptomyces tubercidicus, UniProt A0A384YXG2); test: LC-MS detection of IMP; assay type: biochemical; settings: 1 mM NADPH, 1 mM GMP, 50 mM KCl, 1 mM DTT, 2 mM EDTA, 100 mM Tris-HCl pH 7.5, 30 °C, 4 h
T2 construct: gene Stube_10260; full-length, 385 aa, His6-tagged (pET28a NdeI-EcoRI), E. coli Rosetta (DE3)/pLysS
T2 sequence (A0A384YXG2 1-385): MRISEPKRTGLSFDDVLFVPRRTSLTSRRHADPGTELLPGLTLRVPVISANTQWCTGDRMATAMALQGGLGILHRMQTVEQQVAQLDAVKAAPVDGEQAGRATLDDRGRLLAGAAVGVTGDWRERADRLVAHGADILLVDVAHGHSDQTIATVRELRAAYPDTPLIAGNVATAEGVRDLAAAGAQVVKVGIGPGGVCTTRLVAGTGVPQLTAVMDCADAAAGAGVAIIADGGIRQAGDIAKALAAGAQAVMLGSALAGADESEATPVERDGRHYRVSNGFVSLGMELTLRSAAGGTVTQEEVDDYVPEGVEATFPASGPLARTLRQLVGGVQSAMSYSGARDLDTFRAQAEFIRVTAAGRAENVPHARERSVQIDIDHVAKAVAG

Compound | HPLC and LC-MS product detection; product NMR (TubE) | LC-MS detection of IMP (TubD)
Nc1nc2[nH]cc(C(=O)O)c2c(=O)[nH]1 [CDG] | all of the data demonstrate that TubE functions as a CDG-specific phosphoribosyltransferase | 
NC(=O)C1=CN([C@@H]2O[C@H](COP(=O)(O)OP(=O)(O)OC[C@H]3O[C@@H](n4cnc5c(N)ncnc54)[C@H](OP(=O)(O)O)[C@@H]3O)[C@@H](O)[C@H]2O)C=CC1 [NADPH] |  | this cofactor could not replace NADPH to supply reducing equivalents for the TubD reaction
O=P(O)(O)OC[C@H]1O[C@H](OP(=O)(O)OP(=O)(O)O)[C@H](O)[C@@H]1O [PRPP] | HPLC profile of the TubE reaction using PRPP and CDG as substrates | 
